Results published in patent US8710098B2, “Group of amino substituted benzoyl derivatives and their preparation and their use” (priority 2008, dated 2014).

biological target: T1, hA3G degradation mediated by HIV-1 Vif (UniProt P69723+Q9HC16); experiment: Screening experiment for up-regulation activity to hA3G (YFP-fused hA3G co-expressed with HIV-1 Vif, fluorescence); format: cell-based, human; conditions: YFP fluorescence of cells co-expressing Vif and hA3G-YFP; excitation 485 nm, detection 520 nm; averages of duplicates
T1 construct: expressed in transfected cells
Description: Based on the advances making research on the hA3G degradation mediated by HIV-1 Vif, this invention establishes a high throughput anti-HIV-1 drug screening model using hA3G degradation mediated by HIV-1 Vif as target, to screen small molecule active compounds capable of inhibiting this degradation process. The function principle of this model is that HIV-1 Vif protein and hA3G fused yellow fluorescent protein (YFP) co-expressed in the cells, then the intracellular fluorescence intensity (at […]) decreases owing to the degradation of hA3G caused by Vif and subsequent degradation of YEP fused on hA3G. By means of measuring the change of fluorescent intensity, the influence of the screened compounds on the degradation of hA3G caused by Vif can quantitatively be analyzed. Simultaneously, to differentiate the non-specific inhibitory effect of diverse ubiquitin degradation route in the samples, this invention establishes a recheck model based on the detection of P53 degradation caused by the product of adenovirus early gene, to assure that the positive samples screened out by the proposed model can specifically block the degradation of hA3G caused by Vif.
Screening Experiment for Up-Regulation Activity to hA3G
The cells are picked up and cultured a culture bottle. When the cells grow full of the culture bottle, old culture medium is discarded and the cells are digested with digestion medium. When the cells turn round, the digestion medium is discarded and the culture medium is added in at once, the bottom of the bottle is gently blown with a pipette to make the cells disengage the bottle bottom and disperse into single cell suspension. After counting the cells using blood cell counting chamber, the cell suspension is inoculated into a culture dish for transfection. The medium containing the plasmid to be transfected and the transfection reagents is gently mixed up and incubated at room temperature. The medium is then added into the supernatant of the cell culture and cultured for a certain period of time. The old culture medium is then sucked out, the cells are digested with digestive medium, the digestive medium is subsequently discarded and culture medium is immediately added. The medium is gently blown to disperse the cells into single cell suspension. After counting the cells using blood cell counting chamber, the cells are ready for inoculation.
Samples of compounds[…]Pure tested compounds are dissolved in DMSO, the solution is diluted with equal proportional distilled water. The diluent is used to test the cell systems.
Sample solution of different concentration is added into the supernatant of a cell culture. After the cells are continuously cultured, old culture medium is sucked out and the cells are blown with PBS buffer until the cells completely disengage from the culture bottle.
The fluorescence intensity values of the cell suspension with test compound samples, positive control samples and negative control samples are respectively measured with fluorometer, the excitation wavelength is 485 nm and the detection wavelength 520 nm. Averages of duplicated measurements are taken as the results.
The measured fluorescence intensity values of the negative control samples (blink sample) subtracted from those of test compound samples, the results are taken as YFP fluorescence of different groups. Relative fluorescence intensity=fluorescence intensity of a test sample group/fluorescence intensity of the positive control group×100% Inhibition rate of degradation=(test sample group−negative control group)/(positive control group−negative control group)×100%

T1 sequence (P69723 whole entry, the tested form may be a part): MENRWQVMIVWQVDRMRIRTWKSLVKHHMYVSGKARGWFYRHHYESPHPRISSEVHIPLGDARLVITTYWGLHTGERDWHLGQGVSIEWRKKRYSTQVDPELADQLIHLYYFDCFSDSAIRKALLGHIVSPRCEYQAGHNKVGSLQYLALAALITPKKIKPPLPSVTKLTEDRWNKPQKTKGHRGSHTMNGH
T1 sequence (Q9HC16 whole entry, the tested form may be a part): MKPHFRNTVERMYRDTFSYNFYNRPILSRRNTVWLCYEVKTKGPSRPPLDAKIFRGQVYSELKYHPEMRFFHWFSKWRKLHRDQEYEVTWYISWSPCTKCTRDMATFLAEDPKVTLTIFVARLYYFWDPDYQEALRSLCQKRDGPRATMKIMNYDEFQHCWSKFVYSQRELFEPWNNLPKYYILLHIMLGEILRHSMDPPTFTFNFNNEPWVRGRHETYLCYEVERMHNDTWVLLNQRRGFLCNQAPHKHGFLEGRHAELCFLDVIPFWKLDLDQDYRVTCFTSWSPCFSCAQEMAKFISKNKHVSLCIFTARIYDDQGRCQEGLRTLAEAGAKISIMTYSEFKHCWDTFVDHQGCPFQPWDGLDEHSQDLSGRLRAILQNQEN

Structure (SMILES)	hA3G up-regulation activity (%)
COc1ccc(C(=O)Nc2cc(OC)c(OC)c(OC)c2)cc1NC(=O)CCl [Compound 1, N-(3′,4′,5′-trimethoxyphenyl)-3-(2-chloroacetamido)-4-methoxybenzamide]	36.3%
CNc1cc(C(=O)Nc2cc(OC)nc(OC)n2)ccc1O [Compound 3, N-(2′,6′-dimethoxypyrimidinyl-4′-) 3-methylamino-4-hydroxylbenzamide]	20.2%
COc1ccc(C(=O)Oc2cc(OC)c(OC)c(OC)c2)cc1N [Compound 4]	1.6%
COc1ccc(C(=O)Sc2cc(OC)c(OC)c(OC)c2)cc1N [Compound 5, S-(3′,4′,5′-trimethoxyphenyl) 3-amino-4-methoxybenzenecarbothioate]	14.4%
COc1ccc(C(=O)Cc2cc(OC)c(OC)c(OC)c2)cc1N [Compound 6]	28.7%
CCC(=O)Nc1cc(C(=O)Sc2cc(OC)c(OC)c(OC)c2)ccc1OC [Compound 9, S-(3′,4′,5′-trimethoxyphenyl) 3-propionamido-4-methoxybenzenecarbothiolate]	46.5%
CCC(=O)Nc1cc(C(=O)Cc2cc(OC)c(OC)c(OC)c2)ccc1OC [Compound 10, 1′-(3-propionamido-4-methoxy-benzoyl)methylene-3′,4′,5′-trimethoxybenzene]	28.9%
COc1ccc(C(=O)Nc2cc(OC)c(OC)c(OC)c2)cc1NC(C)=O [Compound 11]	22.2%
COc1ccc(C(=O)Oc2cc(OC)c(OC)c(OC)c2)cc1NC(C)=O [Compound 12]	31.6%
COc1ccc(C(=O)Cc2cc(OC)c(OC)c(OC)c2)cc1NC(C)=O [Compound 13]	42.1%
COc1ccc(C(=O)Nc2cc(OC)c(OC)c(OC)c2)cc1NC(=O)C(C)Cl (stereo not shown) [Compound 14]	11.2%
COc1ccc(C(=O)Sc2cc(OC)c(OC)c(OC)c2)cc1NC(=O)C(C)Cl (stereo not shown) [Compound 15]	19.4%
COc1ccc(C(=O)Cc2cc(OC)c(OC)c(OC)c2)cc1NC(=O)C(C)Cl (stereo not shown) [Compound 16]	17.3%
COc1ccc(C(=O)Nc2cc(OC)c(OC)c(OC)c2)cc1NC(=O)CF [Compound 17]	31.1%
COc1ccc(C(=O)Oc2cc(OC)c(OC)c(OC)c2)cc1NC(=O)CF [Compound 18]	34.5%
COc1ccc(C(=O)Sc2cc(OC)c(OC)c(OC)c2)cc1NC(=O)CF [Compound 19]	44.3%
COc1ccc(C(=O)Cc2cc(OC)c(OC)c(OC)c2)cc1NC(=O)CF [Compound 20]	56.0%
COc1ccc(C(=O)Sc2cc(OC)c(OC)c(OC)c2)cc1NC(=O)C(C)F (stereo not drawn) [Compound 21, S-(3′,4′,5′-trimethoxyphenyl)-3-(2-fluoropropionamido)-4-methoxybenzenecarbothiolate]	21.1%
COc1ccc(C(=O)Sc2cc(OC)c(OC)c(OC)c2)cc1NC(C)=O [Compound 22]	24.6%
COc1ccc(C(=O)Nc2cc(OC)c(OC)c(OC)c2)cc1NC(=O)C(C)F (stereo not shown) [Compound 23]	29.3%
COc1ccc(C(=O)Oc2cc(OC)c(OC)c(OC)c2)cc1NC(=O)C(C)F (stereo not shown) [Compound 24]	18.6%
COc1ccc(C(=O)Cc2cc(OC)c(OC)c(OC)c2)cc1NC(=O)C(C)F (stereo not shown) [Compound 25, 3-(2″-fluoropropionamido)-4-methoxybenzoylmethylene-3′,4′,5′-trimethoxybenzene]	19.4%
COc1ccc(C(=O)Oc2cc(OC)c(OC)c(OC)c2)cc1NC(=O)CCl [Compound 27]	32.1%
COc1ccc(C(=O)Cc2cc(OC)c(OC)c(OC)c2)cc1NC(=O)CCl [Compound 28]	33.6%
COc1ccc(C(=O)Nc2cc(OC)c(OC)c(OC)c2)cc1NC(=O)CBr [Compound 29]	25.3%

Structure (SMILES)	hA3G up-regulation activity (%)
COc1ccc(C(=O)Oc2cc(OC)c(OC)c(OC)c2)cc1NC(=O)CBr [Compound 30]	15.2%
CCC(Br)C(=O)Nc1cc(C(=O)Nc2cc(OC)c(OC)c(OC)c2)ccc1OC (stereo not shown) [Compound 31]	26.4%
CCC(=O)Nc1cc(C(O)Cc2cc(OC)c(OC)c(OC)c2)ccc1OC (stereo not shown) [Compound 32, 1-(3′-propionamido-4′-methoxyphenyl)-2-(3″,4″,5″-trimethoxyphenyl)ethanol]	17.6%
CCC(=O)Nc1cc(C(=O)Nc2cc(OC)nc(OC)n2)ccc1OC [Compound 33]	21.5%
CNc1cc(C(=O)Nc2cc(OC)c(OC)c(OC)c2)ccc1O [Compound 34]	38.3%
CCNc1cc(C(=O)Nc2ccc(OC)c(OC)c2)ccc1OC [Compound 36]	8.6%
CCNc1cc(C(=O)Nc2ccc(OC)cc2)ccc1OC [Compound 37]	7.7%
CNc1cc(C(=O)Nc2cc(OC)cc(OC)c2)ccc1OC [Compound 40, N-(3′,5′-dimethoxyphenyl)-3-methylamino-4-methoxybenzamide]	12.7%
COc1cc(NC(=O)c2ccc(OC)c(N(C)C)c2)cc(OC)c1 [Compound 41]	21.8%
CCNc1cc(C(=O)Nc2ccc(OC)cc2)ccc1OC [Compound 42]	34.3%
COc1ccc(NC(=O)c2ccc(OC)c(NC(C)C)c2)cc1 [Compound 43]	26.4%
CNc1cc(CNc2cc(OC)c(OC)c(OC)c2)ccc1OC [Compound 45]	27.6%
CCC(=O)Nc1cc(C(=O)Nc2cccc(OC)c2)ccc1OC [Compound 46]	29.1%
CCC(=O)Nc1cc(C(=O)Nc2cc(OC)ncn2)ccc1OC [Compound 47]	18.2%
CCC(=O)Nc1cc(C(=O)Nc2cc(OC)co2)ccc1OC [Compound 48, N-(4′-methoxyfuryl-2′-)-4-methoxy-3-propionamidobenzamide]	16.4%
CCC(=O)Nc1cc(C(=O)Nc2cc(OC)c[nH]2)ccc1OC [Compound 49, N-(4′-methoxypyrryl-2′-)-4-methoxy-3-propionamidobenzamide]	9.8%
CCC(=O)Nc1cc(C(=O)Nc2cccc(O)c2)ccc1OC [Compound 50]	−3.1%
CCC(=O)Nc1cc(C(=O)Nc2ccnc(O)c2)ccc1OC [Compound 51]	0.9%
CCC(=O)Nc1cc(C(=O)Nc2cc(OC)c(O)c(OC)c2)ccc1OC [Compound 58]	16.6%
CCC(=O)Nc1cc(NC(=O)c2cc(OC)c(OC)c(OC)c2)ccc1OC [Compound 59]	19.8%
CCC(=O)Nc1cc(C(=O)Nc2ccccc2)ccc1OC [Compound 60]	16.3%
CCC(=O)Nc1cc(C(=O)Nc2ccncn2)ccc1OC [Compound 61, N-(pyrimidyl-4′-)-4-methoxy-3-propionamidobenzamide]	11.8%
CCC(=O)Nc1cc(OC(=O)c2cc(OC)c(OC)c(OC)c2)ccc1OC [Compound 62]	40.1%
CCC(=O)Nc1cc(OC)ccc1C(=O)Nc1cc(OC)c(OC)c(OC)c1 [Compound 63, N-(3′,4′,5′-trimethoxyphenyl)-2-propionamido-4-methoxybenzamide]	21.3%
